The supplement of paper PMC8149375

Experiments:
Details in all cases: treatment: drug alone; 5 days
[1] = tested on: UO-31; assay: AUC of dose-response viability curve, drug alone (arbitrary (AUC of normalised viability)); higher = less growth inhibition
Procedure: (§1)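 Primary HTS: 8 RCC cell lines treated with 8 doses (up to 10 uM) of each library drug alone for 5 days; viability read by CellTiter-Glo and normalised to DMSO. GI50 was fitted with XLfit (4-parameter), AUC is the area under the dose-response curve, and minimum viability is the lowest fraction of DMSO viability across doses.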

[2] = tested on: TK-10; assay: as above
Procedure: as §1

[3] = tested on: 786-O; assay: as above
Procedure: as §1

[4] = tested on: 769-P; assay: as above
Procedure: as §1

[5] = tested on: CAKI-1; assay: as above
Procedure: as §1

[6] = tested on: A498; assay: as above
Procedure: as §1

[7] = tested on: SN12C; assay: as above
Procedure: as §1

[8] = tested on: ACHN; assay: as above
Procedure: as §1

[9] = tested on: UO-31; assay: minimum viability across doses, drug alone, relative to DMSO (fraction); higher = less growth inhibition
Procedure: as §1

[10] = tested on: TK-10; assay: as above
Procedure: as §1

[11] = tested on: 786-O; assay: as above
Procedure: as §1

[12] = tested on: 769-P; assay: as above
Procedure: as §1

[13] = tested on: CAKI-1; assay: as above
Procedure: as §1

[14] = tested on: A498; assay: as above
Procedure: as §1

[15] = tested on: SN12C; assay: as above
Procedure: as §1

[16] = tested on: ACHN; assay: as above
Procedure: as §1

[17] = tested on: UO-31; assay: GI50, drug alone; higher = less potent
Procedure: as §1

[18] = tested on: TK-10; assay: GI50, drug alone; higher = less potent
Procedure: as §1

[19] = tested on: 786-O; assay: GI50, drug alone; higher = less potent
Procedure: as §1

[20] = tested on: 769-P; assay: GI50, drug alone; higher = less potent
Procedure: as §1

[21] = tested on: CAKI-1; assay: GI50, drug alone; higher = less potent
Procedure: as §1

[22] = tested on: A498; assay: GI50, drug alone; higher = less potent
Procedure: as §1

[23] = tested on: SN12C; assay: GI50, drug alone; higher = less potent
Procedure: as §1

[24] = tested on: ACHN; assay: GI50, drug alone; higher = less potent
Procedure: as §1

Row | SMILES | AUC of dose-response viability curve [1] | AUC of dose-response viability curve [2] | AUC of dose-response viability curve [3] | AUC of dose-response viability curve [4] | AUC of dose-response viability curve [5] | AUC of dose-response viability curve [6] | AUC of dose-response viability curve [7] | AUC of dose-response viability curve [8] | minimum viability across doses [9] | minimum viability across doses [10] | minimum viability across doses [11] | minimum viability across doses [12] | minimum viability across doses [13] | minimum viability across doses [14] | minimum viability across doses [15] | minimum viability across doses [16] | GI50, drug alone [17] [nM] | GI50, drug alone [18] [nM] | GI50, drug alone [19] [nM] | GI50, drug alone [20] [nM] | GI50, drug alone [21] [nM] | GI50, drug alone [22] [nM] | GI50, drug alone [23] [nM] | GI50, drug alone [24] [nM]
1 | CO[C@H]1C[C@@H]2CC[C@@H](C)[C@@](O)(O2)C(=O)C(=O)N2CCCC[C@H]2C(=O)O[C@H]([C@H](C)C[C@@H]2CC[C@@H](OCCO)[C@H](OC)C2)CC(=O)[C@H](C)/C=C(\C)[C@@H](O)[C@@H](OC)C(=O)[C@H](C)C[C@H](C)/C=C/C=C/C=C/1C [Everolimus (RAD001)] | 1.96 | 2.3 | 1.21 | 2.37 | 2.14 | 3.45 | 2.56 | 1.85 | 0.314 | 0.538 | 0.293 | 0.56 | 0.406 | 0.851 | 0.631 | 0.39 | 99.2 | > 10000 | 3.85 | > 10000 | 1180 | > 10000 | > 10000 | 278
2 | COc1cc2ncnc(Nc3ccc(F)c(Cl)c3)c2cc1NC(=O)/C=C/CN1CCCCC1 | 2.7 | 1.7 | 1.39 | 1.85 | 2.17 | 3.2 | 2.09 | 1.4 | 0.0173 | 0.0112 | 0.0062 | 0.0108 | 0.00809 | 0.0166 | 0.00743 | 0.00434 | 2820 | 146 | 24.3 | 210 | 1300 | 3000 | 1360 | 50.8
3 | COc1cc(Nc2ncc(F)c(Nc3ccc4c(n3)N(COP(=O)(O)O)C(=O)C(C)(C)O4)n2)cc(OC)c1OC [R788 (Fostamatinib)] | 4.78 | 2.64 | 2.54 | 2.94 | 2.49 | 4.24 | 2.79 | 2.73 | 0.00902 | 0.308 | 0.158 | 0.145 | 0.0246 | 1.06 | 0.287 | 0.0584 | 6020 | 3300 | 1160 | 3500 | 913 | > 10000 | 2980 | 1220
4 | CC(C)(C)c1cnc(CSc2cnc(NC(=O)C3CCNCC3)s2)o1 | 1.87 | 2.22 | 1.5 | 2.51 | 2.39 | 1.58 | 1.69 | 1.76 | 0.0096 | 0.156 | 0.0038 | 0.0214 | 0.0689 | 0.00845 | 0.012 | 0.00527 | 269 | 501 | 134 | 1440 | 558 | 147 | 149 | 258
5 | Cc1ccc(NC(=O)c2cccc(N(C)C)c2)cc1NC(=O)c1ccc(O)cc1 | 4.13 | 2.59 | 2.5 | 3.39 | 3.64 | 4.56 | 3.31 | 3.32 | 0.895 | 0.677 | 0.535 | 0.92 | 0.984 | 0.864 | 0.845 | 0.816 | > 10000 | > 10000 | > 10000 | > 10000 | > 10000 | > 10000 | > 10000 | > 10000
6 | CCn1c(N)c(C(=O)NC)c(=O)c2ccc(C#C[C@@](C)(O)COC)nc21 | 4.24 | 3.45 | 3.31 | 3.92 | 3.62 | 3.88 | 3.44 | 3.52 | 0.992 | 0.9 | 0.869 | 1.02 | 0.845 | 0.887 | 0.849 | 0.909 | > 10000 | > 10000 | > 10000 | > 10000 | > 10000 | > 10000 | > 10000 | > 10000
7 | CS(=O)(=O)CCNCc1ccc(-c2ccc3ncnc(Nc4ccc(OCc5cccc(F)c5)c(Cl)c4)c3c2)o1.Cc1ccc(S(=O)(=O)O)cc1.Cc1ccc(S(=O)(=O)O)cc1 [Lapatinib Ditosylate (Tykerb)] | 4.64 | 2.51 | 2.9 | 2.86 | 3.24 | 3.99 | 3.16 | 2.78 | 1.05 | 0.39 | 0.471 | 0.455 | 0.48 | 0.929 | 0.734 | 0.419 | > 10000 | 3780 | > 10000 | 7100 | 9610 | > 10000 | > 10000 | 5290
8 | Cc1ccc(C(=O)Nc2ccc(CN3CCN(C)CC3)c(C(F)(F)F)c2)cc1C#Cc1cnc2cccnn12 | – | – | – | – | – | – | – | – | – | – | – | – | – | – | – | – | 1250 | 531 | 936 | 2210 | 486 | 2090 | 942 | 327
9 | CN(C[C@@H]1COCCO1)S(=O)(=O)Nc1ccc2ccc3ncc(-c4cnn(C)c4)cc3c(=O)c2c1 [MK-2461] | – | 2.8 | 5.52 | 3.6 | 2.48 | 7.41 | 3.09 | 2.6 | 1.03 | 0.649 | 0.653 | 0.772 | 0.0916 | 0.968 | 0.727 | 0.217 | > 10000 | > 10000 | > 10000 | > 10000 | 1120 | > 10000 | > 10000 | 1720
10 | Nc1ccc(-c2ccc3ncc4ccc(=O)n(-c5cccc(C(F)(F)F)c5)c4c3c2)cn1 [Torin 2] | 0.591 | 0.982 | 0.512 | 1.2 | 1.07 | 1.25 | 1.02 | 0.678 | 0.0112 | 0.0151 | 0.00282 | 0.0587 | 0.0161 | 0.0258 | 0.0362 | 0.0442 | 12 | – | 6.39 | 39.8 | 32.2 | 35.4 | 20.3 | 9.67
